Test results: the supplement of paper PMC13380429

Columns and labels:
Settings in all cases: 72 h
Calu-3 [1] = experiment: cell viability relative to DMSO; higher = less toxic
HepG2 [2] = experiment: as above
Caco-2 [3] = experiment: as above
U2OS [4] = experiment: as above
Vero E6 [5] = experiment: as above
Calu-3 [6] = experiment: relative viability EC50 (midpoint between 100% and the lowest measured viability); higher = less toxic
HepG2 [7] = experiment: as above
U2OS [8] = experiment: as above
Vero E6 [9] = experiment: as above
Calu-3 [10] = experiment: drug sensitivity score (DSS) for viability; higher = more toxic; extreme values may be limits of the assay
HepG2 [11] = experiment: as above
Caco-2 [12] = experiment: as above
U2OS [13] = experiment: as above
Vero E6 [14] = experiment: as above
Caco-2 [15] = experiment: relative viability EC50 (midpoint between 100% and the lowest measured viability); higher = less toxic

Compound | cell viability (Calu-3 [1]; 1 nM) [%] | cell viability (Calu-3 [1]; 10 nM) [%] | cell viability (Calu-3 [1]; 100 nM) [%] | cell viability (Calu-3 [1]; 1000 nM) [%] | cell viability (Calu-3 [1]; 10000 nM) [%] | cell viability (HepG2 [2]; 1 nM) [%] | cell viability (HepG2 [2]; 10 nM) [%] | cell viability (HepG2 [2]; 100 nM) [%] | cell viability (HepG2 [2]; 1000 nM) [%] | cell viability (HepG2 [2]; 10000 nM) [%] | cell viability (Caco-2 [3]; 1 nM) [%] | cell viability (Caco-2 [3]; 10 nM) [%] | cell viability (Caco-2 [3]; 100 nM) [%] | cell viability (Caco-2 [3]; 1000 nM) [%] | cell viability (Caco-2 [3]; 10000 nM) [%] | cell viability (U2OS [4]; 1 nM) [%] | cell viability (U2OS [4]; 10 nM) [%] | cell viability (U2OS [4]; 100 nM) [%] | cell viability (U2OS [4]; 1000 nM) [%] | cell viability (U2OS [4]; 10000 nM) [%] | cell viability (Vero E6 [5]; 1 nM) [%] | cell viability (Vero E6 [5]; 10 nM) [%] | cell viability (Vero E6 [5]; 100 nM) [%] | cell viability (Vero E6 [5]; 1000 nM) [%] | cell viability (Vero E6 [5]; 10000 nM) [%] | relative viability EC50 (Calu-3 [6]) [nM] | relative viability EC50 (HepG2 [7]) [nM] | relative viability EC50 (U2OS [8]) [µM] | relative viability EC50 (Vero E6 [9]) [nM] | drug sensitivity score (Calu-3 [10]) | drug sensitivity score (HepG2 [11]) | drug sensitivity score (Caco-2 [12]) | drug sensitivity score (U2OS [13]) | drug sensitivity score (Vero E6 [14]) | relative viability EC50 (Caco-2 [15]) [µM]
CC(C)(O)CC(=O)NCCn1ccc2ncnc(Nc3ccc(Oc4cccc(C(F)(F)F)c4)c(Cl)c3)c21 [TAK-285] | 109 | 93.7 | 76.1 | 48.2 | 31 | 106 | 110 | 113 | 105 | 81.1 | 103 | 90.9 | 92.8 | 85 | 70 | 99.1 | 96.2 | 95 | 95.9 | 80.2 | 95.7 | 92.8 | 92.6 | 78.2 | 37.8 | 228 | > 10000 | > 10 | 1410 | 12.6 | 0.3 | 2.9 | 1 | 5.9 | 
Cn1c(=O)c(F)c(Nc2ccc(I)cc2F)c2c(=O)n(C[C@@H](O)CO)cnc21 [TAK-733] | 88.5 | 74.4 | 53.3 | 31.8 | 24.6 | 88.1 | 41.2 | 24.8 | 19.5 | 17.2 | 89.4 | 84.6 | 70.7 | 66.4 | 58.7 | 94.5 | 98.7 | 85.9 | 36 | 10.8 | 96.9 | 82.9 | 62.3 | 51.6 | 42.2 | 32.3 | 4.7 | 0.435 | 42 | 21.1 | 33.3 | 11.2 | 13.8 | 15.2 | 
O=C(Nc1cc(Oc2cc(F)c(NC(=O)C3(C(=O)Nc4ccc(F)cc4)CC3)cc2F)ccn1)C1CC1 [altiratinib] | 98.5 | 110 | 97.1 | 109 | 95.5 | 107 | 103 | 94.7 | 35.8 | 58.5 | 113 | 106 | 104 | 101 | 99.3 |  |  |  |  |  |  |  |  |  |  | > 10000 | 250 |  |  | 0 | 12.6 | 0 |  |  | > 10
COC(=O)C1=C(C)NC(C)=C(C(=O)OC2CCCN(Cc3ccccc3)C2)C1c1cccc([N+](=O)[O-])c1 (stereo not drawn) [benidipine] | 99 | 98.8 | 106 | 102 | 77.8 | 109 | 101 | 105 | 105 | 80.2 | 97.7 | 108 | 101 | 97 | 64.4 | 100 | 102 | 93.8 | 99.6 | 81.7 | 102 | 101 | 106 | 99 | 104 | > 10000 | > 10000 | > 10 | > 10000 | 0.6 | 0.4 | 2.1 | 0.5 | 0 | 
